{"source": "patent US20230321590A1", "about": "“AQUEOUS LIQUID SORBENT” (COMPACT CARBON CAPTURE AS, priority 2020, published 2023)", "origin": "cited, not measured here", "data": [{"conditions": "literature values", "units": {"Reaction rate constant at 25° C.": "m^3kmol^−1s^−1"}, "values": [{"smiles": "OCCNCCO", "note": "[Diethanolamine (DEA), Diethanolamine]", "Reaction rate constant at 25° C.": 2375}, {"smiles": "NCCO", "note": "[Monoethanolamine (MEA), Monoethanolamine]", "Reaction rate constant at 25° C.": 7000}, {"smiles": "CC(C)(N)CO", "note": "[2-amino-2-methyl-1-propanol (AMP), 2-amino-2-methyl-1-propanol]", "Reaction rate constant at 25° C.": 810}, {"smiles": "NCCOCCO", "note": "[Diglycolamine (DGA), Diglycolamine]", "Reaction rate constant at 25° C.": 6663}, {"smiles": "CC(O)CNCC(C)O", "note": "(stereo not drawn) [Diisopropanolamine (DIPA), Diisopropanolamine]", "Reaction rate constant at 25° C.": 2585}, {"smiles": "C1CNCCN1", "note": "[Piperazine]", "Reaction rate constant at 25° C.": 53700}]}]}
